The source of these data is PubChem BioAssay (NCI).

Test systems include CCRF-CEM leukemia; MDA-MB-435; EKVX NSCLC; IGROV1 ovarian; BT-549 breast; NCI-H23 lung; SK-MEL-5 melanoma; A498 renal; SF-539 CNS; NCI/ADR-RES ovarian.
What all share (assay): NCI tumour cell line growth inhibition, 48 h

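Cells were grown in 96-well plates and exposed to each compound for 48 hours at five concentrations; endpoints were interpolated linearly between bracketing concentrations, or set to the highest concentration if not reached. GI50 marks 50% less growth. TGI denotes the concentration required for complete inhibition of growth.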

As for `C=C1CO[C@@H]2C[C@@H]1CCC1(C)OC1CC/C(C)=C/CC[C@@]2(C)O` (stereo not given in full), the GI50 with CCRF-CEM leukemia is 15.1 µM; with MDA-MB-435, 18.5 µM; with EKVX NSCLC, 18.7 µM; in the test on IGROV1 ovarian it was 16.3 µM; in the test on BT-549 breast it was 26.4 µM; in the test with NCI-H23 lung, 27.8 µM. Further, the GI50 was 15.4 µM in the test with SK-MEL-5 melanoma, above 79.1 µM in the test on A498 renal, 16.1 µM in the test with SF-539 CNS and 32.3 µM in the test on NCI/ADR-RES ovarian. Moreover, the TGI was 38.1 µM with CCRF-CEM leukemia; 42.2 µM in the test with MDA-MB-435; 43.9 µM with EKVX NSCLC; 32 µM with IGROV1 ovarian; 61.5 µM in the test on BT-549 breast; above 73 µM with NCI-H23 lung. Also, the TGI in the test with SK-MEL-5 melanoma was 29.4 µM; in the test on A498 renal, above 100 µM; with SF-539 CNS it was 31.3 µM; in the test with NCI/ADR-RES ovarian it was above 67.4 µM.
Take `C=CCNc1cccc2c1C(=O)c1ccccc1C2(O)CC=C` (stereo not given): the GI50 with CCRF-CEM leukemia was 22.6 µM; with MDA-MB-435, 24.6 µM; in the test on EKVX NSCLC, 31.8 µM; in the test with IGROV1 ovarian, 33.3 µM; in the test with BT-549 breast, 19.3 µM; in the test with NCI-H23 lung it was 18.2 µM. Further, the GI50 is 16 µM with SK-MEL-5 melanoma, 21.8 µM in the test on A498 renal, 19.5 µM in the test with SF-539 CNS and 22.4 µM with NCI/ADR-RES ovarian. The TGI is 52 µM in the test with CCRF-CEM leukemia; 59 µM with MDA-MB-435; above 100 µM with EKVX NSCLC; above 100 µM in the test on IGROV1 ovarian; 42.7 µM with BT-549 breast; 45.7 µM in the test on NCI-H23 lung. Moreover, the TGI in the test with SK-MEL-5 melanoma turned out to be 30.2 µM; with A498 renal, 47.8 µM; with SF-539 CNS, 38.4 µM; in the test on NCI/ADR-RES ovarian, 58.4 µM.
As for `CC(C)(CCC(C)(C)c1ccccc1)c1ccccc1`, the TGI with CCRF-CEM leukemia was 39.9 µM; in the test on MDA-MB-435 it was 49.9 µM; with EKVX NSCLC, 32.4 µM; in the test on IGROV1 ovarian, 79.7 µM; in the test on BT-549 breast it was 37.2 µM; with NCI-H23 lung, 33.9 µM. Also, the TGI with SK-MEL-5 melanoma is 28.5 µM; with A498 renal, 33.2 µM; with SF-539 CNS it was 43.6 µM; in the test on NCI/ADR-RES ovarian, 36.9 µM.
Turning to `CC1(C)CC[C@]2(C(=O)O)CC[C@]3(C)[C@H](CC[C@@H]4[C@@]5(C)CCC(=O)C(C)(C)[C@@H]5CC[C@]43C)[C@H]2[C@H]1OC(=O)C(F)(F)F`, the GI50 is 9.51 µM in the test with CCRF-CEM leukemia; 10.6 µM with MDA-MB-435; 14.5 µM with EKVX NSCLC; 18.9 µM in the test on IGROV1 ovarian; 9.3 µM with BT-549 breast; 11 µM in the test with NCI-H23 lung. The GI50 in the test on SK-MEL-5 melanoma is 8.11 µM; in the test with A498 renal it was 15.7 µM; in the test on SF-539 CNS, 5.34 µM; in the test on NCI/ADR-RES ovarian, 12.3 µM. The TGI in the test on CCRF-CEM leukemia worked out at 41.5 µM; with MDA-MB-435 it was 26.9 µM; with EKVX NSCLC it was 30.5 µM; in the test on IGROV1 ovarian, 40.5 µM; in the test on BT-549 breast, 22.3 µM; with NCI-H23 lung, 28.6 µM. Besides, the TGI is 20.6 µM in the test on SK-MEL-5 melanoma, 30.9 µM in the test with A498 renal, 18.1 µM with SF-539 CNS and 26.2 µM with NCI/ADR-RES ovarian.
`C#CC#CC#CC#CC#CC#CC#CC#CCC1OC[C@H](COC(=O)O[C@@H](C(=O)O[C@H]2C[C@@]3(O)[C@@H](OC(=O)c4ccccc4)[C@@H]4[C@]5(OC(C)=O)CO[C@@H]5C[C@H](O)[C@@]4(C)C(=O)[C@H](OC(C)=O)C(=C2C)C3(C)C)[C@@H](NC(=O)c2ccccc2)c2ccccc2)O1` (stereo not given in full): the GI50 was 0.632 µM in the test with CCRF-CEM leukemia; 0.044 µM in the test with MDA-MB-435; above 33.3 µM with EKVX NSCLC; 0.424 µM in the test on IGROV1 ovarian; 1.01 µM with BT-549 breast; 0.888 µM with NCI-H23 lung. Further, the GI50 with SK-MEL-5 melanoma was 1.47 µM; in the test with A498 renal it was 0.494 µM; with SF-539 CNS, 0.298 µM; with NCI/ADR-RES ovarian, above 33.3 µM. For the same molecule, the TGI in the test on CCRF-CEM leukemia was above 33.3 µM; with MDA-MB-435 it was 0.109 µM; in the test on EKVX NSCLC it was above 33.3 µM; in the test with IGROV1 ovarian, above 33.3 µM; in the test on BT-549 breast it was above 33.3 µM; in the test on NCI-H23 lung it was above 33.3 µM. Also, the TGI in the test with SK-MEL-5 melanoma was above 33.3 µM; with A498 renal, above 8.14 µM; with SF-539 CNS, 4.68 µM; in the test on NCI/ADR-RES ovarian, above 33.3 µM.
`Cc1ccccc1NC(=O)c1sc2nc3c(cc2c1N)C(=O)CCC3`: the GI50 in the test with CCRF-CEM leukemia was 2.55 µM; in the test on MDA-MB-435 it was 0.331 µM; in the test on EKVX NSCLC, 6.82 µM; with IGROV1 ovarian, 5.26 µM; in the test on BT-549 breast, 6.58 µM; in the test with NCI-H23 lung, 4.62 µM. For the same molecule, the GI50 in the test with SK-MEL-5 melanoma was 0.613 µM; with A498 renal, 1.16 µM; in the test with SF-539 CNS, 2.13 µM; in the test with NCI/ADR-RES ovarian it was 2.23 µM. In addition, the TGI in the test with CCRF-CEM leukemia was above 100 µM; in the test on MDA-MB-435 it was 1.98 µM; in the test with EKVX NSCLC it was above 100 µM; in the test on IGROV1 ovarian, above 100 µM; in the test on BT-549 breast, above 100 µM; in the test with NCI-H23 lung, above 100 µM. For the same molecule, the TGI is 11.6 µM with SK-MEL-5 melanoma, 4.65 µM in the test on A498 renal, 8.1 µM with SF-539 CNS and above 100 µM with NCI/ADR-RES ovarian.
